Series [1] in a line: Photochromic response of test squares on an optical bench. The format is physicochemical. As to conditions: for Bleach Rate T 1/2: time to one half the highest absorbance at room temperature (72° F., 22.2° C.) after removal of activating light; for Sensitivity ΔOD/min: first five (5) seconds of UV exposure, expressed per minute, 72° F. (22.2° C.), 0.15 to 0.20 mW/cm^2. The procedure:
(§1) Testing was done with the photochromic compounds prepared in Examples 1, 2, 3 and 4 in the following manner. A quantity of each photochromic compound calculated to yield a 1.5×10^-3 molal solution was added to a flask containing 50 grams of a monomer blend of 4 parts ethoxylated bisphenol A dimethacrylate (BPA 2EO DMA), 1 part poly(ethylene glycol) 600 dimethacrylate, and 0.033 weight percent 2,2'-azobis(2-methyl propionitrile) (AIBN). Each photochromic compound was dissolved into the monomer blend by stirring and gentle heating. After a clear solution was obtained, it was poured into a flat sheet mold having the interior dimensions of 2.2 mm×6 inches (15.24 cm)×6 inches (15.24 cm). The mold was sealed and placed in a horizontal air flow, programmable oven programmed to increase the temperature from 40° C. to 95° C. over a 5 hour interval, hold the temperature at 95° C. for 3 hours, lower it to 60° C. over a 2 hour interval and then hold at 60° C. for 16 hours. After the mold was opened, the polymer sheet was cut using a diamond blade saw into 2 inch (5.1 centimeters) test squares.
The photochromic test squares prepared in Part A were tested for photochromic response on an optical bench. Prior to testing on the optical bench, the photochromic test squares were exposed to 365 nanometer ultraviolet light for about 15 minutes to activate the photochromic compounds and then placed in a 76° C. oven for about 15 minutes to bleach or inactivate the photochromic compounds. The test squares were then cooled to room temperature, exposed to fluorescent room lighting for at least 2 hours and then kept covered for at least 2 hours prior to testing on an optical bench maintained at 72° F. (22.2° C.). The bench was fitted with a 150 watt Xenon arc lamp, a remote controlled shutter, a copper sulfate bath acting as a heat sink for the arc lamp, a Schott WG-320 nm cut-off filter which removes short wavelength radiation; neutral density filter(s) and a sample holder in which the square to be tested was inserted. The power output of the optical bench, i.e., the dosage of light that the sample lens would be exposed to, was calibrated with a photochromic test square used as a reference standard. […] The UV-A detector was placed into the sample holder and the light output was measured. […]
A monitoring, collimated beam of light from a tungsten lamp was passed through the square at a small angle (approximately 30° ) normal to the square. After passing through the square, the light from the tungsten lamp was directed to a detector through Spectral Energy Corp. GM-200 monochromator set at the previously determined visible lambda max of the photochromic compound being measured. […]
Change in optical density (ΔOD) was determined by inserting a test square in the bleached state into the sample holder, adjusting the transmittance scale to 100% opening the shutter from the Xenon lamp to provide ultraviolet radiation to change the test square from the bleached state to an activated (i.e., darkened) state, measuring the transmittance in the activated state, and calculating the change in optical density according to the formula: ΔOD=log (100/%Ta), where %Ta is the percent transmittance in the activated state and the logarithm is to the base 10.
The Δ OD/Min, which represents the sensitivity of the photochromic compound's response to UV light, was measured over the first five (5) seconds of UV exposure, then expressed on a per minute basis. […]

Series [2] in a line: lambda max (Vis) of activated form in test square polymerizates (Varian Cary 3 UV-Visible spectrophotometer). As to conditions: activated (colored) form in test square; BPA 2EO DMA / poly(ethylene glycol) 600 dimethacrylate polymer. The format is physicochemical. As to the method: as §1
The Δ OD/Min, which represents the sensitivity of the photochromic compound's response to UV light, was measured over the first five (5) seconds of UV exposure, then expressed on a per minute basis. The saturation optical density (Δ OD@ Saturation) was taken under identical conditions as the Δ OD/Min, except UV exposure was continued for 15 minutes. The lambda max (Vis) is the wavelength in nanometers (nm) in the visible spectrum at which the maximum absorption of the activated (colored) form of the photochromic compound in a test square occurs. The lambda max (Vis) wavelength was determined by testing the photochromic test square polymerizates of Part A in a Varian Cary 3 UV-Visible spectrophotometer. The Bleach Rate (T 1/2) is the time interval in seconds for the absorbance of the activated form of the photochromic compound in the test squares to reach one half the highest absorbance at room temperature (72° F., 22.2° C.) after removal of the source of activating light.

`Cc1ccc2c3c(c4c(=O)oc(C(c5ccccc5)c5ccccc5)cc4c2c1)C=CC(c1ccccc1)(c1ccccc1)O3` [Example 1, 2,2-diphenyl-7-diphenylmethyl-10-methyl-2,5-dihydro-5-oxo-pyrano[3',4':3,4]naphtho[1,2-b]pyran]: in series [1], the “Bleach Rate T 1/2” value turned out to be 0.833 min. The “lambda max (Vis)” value in series [2] came out at 492 nanometers.

On to `COc1ccc(C2(c3ccc(OC)cc3)C=Cc3c4c(c5cc(C)ccc5c3O2)C=C(C(c2ccccc2)c2ccccc2)OC4)cc1` [Example 3, 2,2-di(4-methoxyphenyl)-7-diphenylmethyl-10-methyl-2,5-dihydro-pyrano[3',4':3,4]naphtho[1,2-b]pyran], for which, in series [1], the “Sensitivity ΔOD/min” value was 0.33 ΔOD/min and the “Bleach Rate T 1/2” value worked out at 3.03 min. For the same compound, in series [2], the “lambda max (Vis)” value came to 569 nanometers.

In the case of `Cc1ccc2c3c(c4c(c2c1)C=C(C(c1ccccc1)c1ccccc1)OC4)C=CC(c1ccccc1)(c1ccc(N2CCOCC2)cc1)O3` (centres unmarked) [Example 4, 2-phenyl-2-(4-morpholinophenyl)-7-diphenylmethyl-10-methyl-2,5-dihydro-pyrano[3',4':3,4]naphtho[1,2-b]pyran], in series [1], the “Sensitivity ΔOD/min” value is listed as 0.39 ΔOD/min and the “Bleach Rate T 1/2” value amounted to 4.68 min. The “lambda max (Vis)” value in series [2] is reported as 592 nanometers.

The values are drawn from patent publication US6106744A, “Photochromic pyrano-fused naphthopyrans” (PPG Industries Ohio, Inc., priority 1997, dated 2000).
